Test results: patent US12257246B2, “Composition of 2,4,6-trifluoro-n-[6-(1-methyl-piperidin-4-carbonyl)-pyridin-2-yl[-benzamide” (CoLucid Pharmaceuticals, Inc., priority 2009, dated 2025)
“Also recorded” adds a separate entry of the source. Marks after values point to notes of the source that are not given here.

System: migraine attack
Assay: Intravenous dose-finding study in acute migraine: headache response (moderate or severe becoming mild or none) and secondary efficacy
Type: in vivo, human
Experimental: Preclinical and early clinical experiments predict acute anti-migraine efficacy of Compound I that is mediated through a non-vascular, primarily neural, mechanism. In a multi-centre, placebo-controlled, double-blind, group-sequential, adaptive treatment-assignment, proof-of-concept and dose-finding study, 130 patients were treated in-hospital during a migraine attack. Patients were allocated to an intravenous dose level of Compound I or placebo in small cohorts. The starting dose was 2.5 mg. Subsequent doses were adjusted, up or down, according to the safety and efficacy seen in the preceding cohort. The primary outcome measure was headache response defined as improvement from moderate or severe headache at baseline to mild or no headache at 2 hours post-dose. The study was designed to explore the overall dose response relationship but was not powered to differentiate individual doses from placebo, nor to detect effect differences for other migraine symptoms.
The study used a prospective, randomized, double-blind, placebo-controlled design with group-sequential adaptive-treatment assignment (Olesen J et al., N Engl J Med 2004: 350: 1104-10; Hall D B et al., Contemporary Clinical Trials 2005; 26: 349-63). […] The first cohort was allocated to the 2.5 mg dose level. The dose used in subsequent cohorts depended on the headache response (moderate or severe headache reduced to mild or none at 2 hours) of the previous cohort: if 2 or less of the 4 active-treated patients had responded, the dose was increased, and if 3 or more of the 4 active-treated patients had responded, the dose was reduced. The dose adjustment rules were chosen to identify doses of Compound I with efficacy similar to or better than an oral triptan. […] The occurrence of a drug-related serious adverse event would lead to automatic suspension of the randomization pending a safety review.
Patients were initially screened for eligibility at an out-patient visit outside a migraine attack, and were invited to return to the clinic for treatment with study medication of a new, moderate or severe migraine attack within 4 hours of onset. On return to the clinic, eligibility for the study was reconfirmed and the patient was randomized. Patients were eligible for the study if they were between 18 and 65 years of age and had at least a 1 year history of migraine with or without aura fulfilling the IHS diagnostic criteria 1.1 and 1.2.1 (2004), with a migraine onset before the age of 50 years (Headache Classification Subcommittee of the International Headache Society. The International Classification of Headache Disorders (second edition). Cephalalgia 2004: 24; Supp11:1-160). Patients had to be experiencing between 1 and 8 migraine attacks a month and not be using migraine prophylactic medication. Patients were in good general health and had no evidence of vascular disease or hypertension. Patients with previous intolerance of triptans were excluded. Pregnant or breast-feeding women were excluded, as were women of childbearing potential who were not using a highly reliable form of contraception.
On return of the patient to the clinic, instructions for dilution of study drug were obtained from an online randomization system by a pharmacist or other study personnel, independent of the investigator, and the study drug for infusion was prepared. Both investigator and pharmacist were blinded with regard to active or placebo and only the pharmacist knew the dilution. All patients received a 60 ml intravenous infusion over 20 minutes. Efficacy and safety data before and after administration of study drug were entered immediately into an electronic data capture system, so allowing the headache response to be used to drive dose-allocation for subsequent cohorts.
Data were entered concurrently into an online electronic data capture system. Patients were discharged from the clinic after 4 h and continued to record migraine symptoms and adverse events until 24 h using a diary card. […]

Structure (SMILES): CN1CCC(C(=O)c2cccc(NC(=O)c3c(F)cc(F)cc3F)n2)CC1 [Compound I, 2,4,6-trifluoro-N-[6-(1-methyl-piperidin-4-ylcarbonyl)-pyridin-2-yl]-benzamide]
- Impression: very much/much better 2h (2.5 mg iv): 75.0% of Patients
- Nausea 2 h (2.5 mg iv): 25.0% of Patients
- No/mild disability 2 h (2.5 mg iv): 75.0% of Patients
- Pain freedom 2 h (2.5 mg iv): 0.0% of Patients
- Phonophobia 2 h (2.5 mg iv): 25.0% of Patients
- Photophobia 2 h (2.5 mg iv): 25.0% of Patients
- Sustained pain free (2.5 mg iv): 0.0% of Patients
- Sustained pain response (2.5 mg iv): 50.0% of Patients
- Use of rescue medication, 2-24 h (2.5 mg iv): 25.0% of Patients
- Proportion of Patients with headache response (2.5 mg iv, 10 min post dose): 0.0% of Patients
- Proportion of Patients with headache response (2.5 mg iv, 20 min post dose): 0.0% of Patients
- Proportion of Patients with headache response (2.5 mg iv, 40 min post dose): 0.0% of Patients
- Proportion of Patients with headache response (2.5 mg iv, 60 min post dose): 50.0% of Patients
- Proportion of Patients with headache response (2.5 mg iv, 90 min post dose): 50.0% of Patients
- Proportion of Patients with headache response (2.5 mg iv, 120 min post dose): 50.0% of Patients
- Proportion of Patients with headache response (2.5 mg iv, 180 min post dose): 50.0% of Patients
- Proportion of Patients with headache response (2.5 mg iv, 240 min post dose): 75.0% of Patients
- Impression: very much/much better 2h (5 mg iv): 8.3% of Patients
- Nausea 2 h (5 mg iv): 41.7% of Patients
- No/mild disability 2 h (5 mg iv): 16.6% of Patients
- Pain freedom 2 h (5 mg iv): 0.0% of Patients
- Phonophobia 2 h (5 mg iv): 41.7% of Patients
- Photophobia 2 h (5 mg iv): 75.0% of Patients
- Sustained pain free (5 mg iv): 0.0% of Patients
- Sustained pain response (5 mg iv): 8.3% of Patients
- Use of rescue medication, 2-24 h (5 mg iv): 91.7% of Patients
- Proportion of Patients with headache response (5 mg iv, 10 min post dose): 8.3% of Patients
- Proportion of Patients with headache response (5 mg iv, 20 min post dose): 16.7% of Patients
- Proportion of Patients with headache response (5 mg iv, 40 min post dose): 25.0% of Patients
- Proportion of Patients with headache response (5 mg iv, 60 min post dose): 25.0% of Patients
- Proportion of Patients with headache response (5 mg iv, 90 min post dose): 25.0% of Patients
- Proportion of Patients with headache response (5 mg iv, 120 min post dose): 16.7% of Patients
- Proportion of Patients with headache response (5 mg iv, 180 min post dose): 25.0% of Patients
- Proportion of Patients with headache response (5 mg iv, 240 min post dose): 33.3% of Patients
- Impression: very much/much better 2h (10 mg iv): 37.5% of Patients
- Nausea 2 h (10 mg iv): 12.5% of Patients
- No/mild disability 2 h (10 mg iv): 54.2% of Patients
- Pain freedom 2 h (10 mg iv): 20.8% of Patients
- Phonophobia 2 h (10 mg iv): 25.0% of Patients
- Photophobia 2 h (10 mg iv): 45.8% of Patients
- Sustained pain free (10 mg iv): 12.5% of Patients
- Sustained pain response (10 mg iv): 33.3% of Patients
- Use of rescue medication, 2-24 h (10 mg iv): 58.3% of Patients
- Proportion of Patients with headache response (10 mg iv, 10 min post dose): 8.3% of Patients
- Proportion of Patients with headache response (10 mg iv, 20 min post dose): 25.0% of Patients
- Proportion of Patients with headache response (10 mg iv, 40 min post dose): 37.5% of Patients
- Proportion of Patients with headache response (10 mg iv, 60 min post dose): 50.0% of Patients
- Proportion of Patients with headache response (10 mg iv, 90 min post dose): 45.8% of Patients
- Proportion of Patients with headache response (10 mg iv, 120 min post dose): 54.2% of Patients
- Proportion of Patients with headache response (10 mg iv, 180 min post dose): 54.2% of Patients
- Proportion of Patients with headache response (10 mg iv, 240 min post dose): 54.2% of Patients
- onset of headache relief (20 mg and 30 mg iv): speed onset of headache relief; also recorded: rapid onset of headache relief
- Impression: very much/much better 2h (20 mg iv): 42.9% of Patients
- Nausea 2 h (20 mg iv): 21.4% of Patients
- No/mild disability 2 h (20 mg iv): 57.1% of Patients
- Pain freedom 2 h (20 mg iv): 28.6% of Patients
- Phonophobia 2 h (20 mg iv): 25.0% of Patients
- Photophobia 2 h (20 mg iv): 42.9% of Patients
- Sustained pain free (20 mg iv): 17.9% of Patients
- Sustained pain response (20 mg iv): 35.7% of Patients
- Use of rescue medication, 2-24 h (20 mg iv): 53.6% of Patients
- Proportion of Patients with headache response (20 mg iv, 10 min post dose): 14.3% of Patients
- Proportion of Patients with headache response (20 mg iv, 20 min post dose): 39.3% of Patients
- Proportion of Patients with headache response (20 mg iv, 40 min post dose): 50.0% of Patients
- Proportion of Patients with headache response (20 mg iv, 60 min post dose): 53.6% of Patients
- Proportion of Patients with headache response (20 mg iv, 90 min post dose): 53.6% of Patients
- Proportion of Patients with headache response (20 mg iv, 120 min post dose): 64.3% of Patients
- Proportion of Patients with headache response (20 mg iv, 180 min post dose): 60.7* Percent of Patients
- Proportion of Patients with headache response (20 mg iv, 240 min post dose): 57.1* Percent of Patients
- Impression: very much/much better 2h (30 mg iv): 68.8% of Patients
- Nausea 2 h (30 mg iv): 6.3% of Patients
- No/mild disability 2 h (30 mg iv): 75.1% of Patients
- Pain freedom 2 h (30 mg iv): 37.5% of Patients
- Phonophobia 2 h (30 mg iv): 25.0% of Patients
- Photophobia 2 h (30 mg iv): 25.0% of Patients
- Sustained pain free (30 mg iv): 18.8% of Patients
- Sustained pain response (30 mg iv): 56.3% of Patients
- Use of rescue medication, 2-24 h (30 mg iv): 37.5% of Patients
- associated symptoms (photophobia, phonophobia, nausea) (30 mg iv): reduced associated symptoms of photophobia, phonophobia, and nausea
- headache recurrence within 24 hours (30 mg iv): reduced headache recurrence
- moderate or severe disability reported (30 mg iv): reduced the percent of moderate or severe disability reported
- patient global impression 2 hours post dose (30 mg iv): increased the number of patients who felt much or very much better; also recorded: increase in the number of patients who felt much better or very much better
- use of rescue medication (30 mg iv): reduced the use of rescue medication
- pain free at 2 hours versus placebo (30 mg iv over 20 minutes): completely abolished headache in a greater number of patients than placebo; also recorded: completely abolishes headache (‘pain free’) in a greater number of patients than placebo
- Proportion of Patients with headache response (30 mg iv, 10 min post dose): 12.5% of Patients
- Proportion of Patients with headache response (30 mg iv, 20 min post dose): 50.0% of Patients
- Proportion of Patients with headache response (30 mg iv, 40 min post dose): 75.0* Percent of Patients
- Proportion of Patients with headache response (30 mg iv, 60 min post dose): 75.0* Percent of Patients
- Proportion of Patients with headache response (30 mg iv, 90 min post dose): 68.8% of Patients
- Proportion of Patients with headache response (30 mg iv, 120 min post dose): 68.8% of Patients
- Proportion of Patients with headache response (30 mg iv, 180 min post dose): 68.8* Percent of Patients
- Proportion of Patients with headache response (30 mg iv, 240 min post dose): 68.8* Percent of Patients
- Impression: very much/much better 2h (45 mg iv): 50.0% of Patients
- Nausea 2 h (45 mg iv): 25.0% of Patients
- No/mild disability 2 h (45 mg iv): 25.0% of Patients
- Pain freedom 2 h (45 mg iv): 25.0% of Patients
- Phonophobia 2 h (45 mg iv): 25.0% of Patients
- Photophobia 2 h (45 mg iv): 25.0% of Patients
- Sustained pain free (45 mg iv): 25.0% of Patients
- Sustained pain response (45 mg iv): 25.0% of Patients
- Use of rescue medication, 2-24 h (45 mg iv): 25.0% of Patients
- Proportion of Patients with headache response (45 mg iv, 10 min post dose): 75.0* Percent of Patients
- Proportion of Patients with headache response (45 mg iv, 20 min post dose): 75.0% of Patients
- Proportion of Patients with headache response (45 mg iv, 40 min post dose): 75.0% of Patients
- Proportion of Patients with headache response (45 mg iv, 60 min post dose): 50.0% of Patients
- Proportion of Patients with headache response (45 mg iv, 90 min post dose): 75.0% of Patients
- Proportion of Patients with headache response (45 mg iv, 120 min post dose): 75.0% of Patients
- Proportion of Patients with headache response (45 mg iv, 180 min post dose): 75.0% of Patients
- Proportion of Patients with headache response (45 mg iv, 240 min post dose): 25.0% of Patients
- time at which response starts to separate from placebo (doses of 20 mg and above, after start of infusion): 20 min
- efficacy in acute treatment of migraine (intravenous doses of 20 mg and higher): proved effective
- effective dose identified by predefined stopping rules (iv over 20 min, primary endpoint): 20 mg
